Measured values reported in patent US9296748B2, “Pyridinones” (Boehringer Ingelheim International GmbH, priority 2013, dated 2016).

The compounds below were run against BRD4-BD1 (Homo sapiens (Human), UniProt O60885) (assay: BRD4-H4 Tetraacetylated Peptide Inhibition AlphaScreen). Conditions: GST-BRD4-BD1 (aa 44-168), biotinylated Acetyl-Histone H4 peptide.
Type: binding
Protocol: Compounds are diluted in serial dilution 1:5 in assay buffer from 10 mM stock in DMSO (100 μM start concentration) in white OptiPlate-384 (PerkinElmer). […] Subsequently, 6 μl of premixed AlphaLISA Glutathione Acceptor Beads and AlphaScreen Streptavidin Donor Beads from PerkinElmer (in assay buffer at a concentration of 10 μg/ml each) are added and the samples are incubated for 30 min at RT in the dark (shaking 300 rpm). Afterwards, the signal is measured in a PerkinElmer Envision HTS Multilabel Reader using the AlphaScreen protocol from PerkinElmer. […] Negative control values are entered as low basis value when using the software GraphPad Prism for calculations. Furthermore, a positive control (probe molecule JQ1+ with protein/peptide mix) is pipetted. Determination of IC50 values are carried out using GraphPad Prism 3.03 software (or updates thereof).

In order of rising IC50:
1. Cc1cc(-c2nc3ccc(N4CCN(C)CC4)cc3n2Cc2ccccc2)cn(C)c1=O [Example I-1, 5-[1-Benzyl-6-(4-methylpiperazin-1-yl)-1H-1,3-benzodiazol-2-yl]-1,3-dimethyl-1,2-dihydropyridin-2-one]  12 nM
2. Cc1cc(-c2nc3ccc(N4CCN(C)CC4)cc3n2Cc2ccccc2)nn(C)c1=O [Example I-11]  12 nM
3. Cc1cc(-c2nc3ccc(F)cc3n2Cc2ccccc2)cn(C)c1=O [Example I-12, 5-(1-Benzyl-6-fluoro-1H-benzoimidazol-2-yl)-1,3-dimethyl-1H-pyridin-2-one]  18 nM
4. Cc1cc(-c2nc3ccc(N4CCOCC4)cc3n2Cc2ccccc2)cn(C)c1=O [Example I-6]  19 nM
5. Cc1nc(-c2nc3ccc(N4CCN(C)CC4)cc3n2Cc2ccccc2)cn(C)c1=O [Example I-14]  36 nM
6. Cc1cc(-c2nc3cnc(OCC4CC4)cc3n2C(C)c2ccccn2)cn(C)c1=O (racemic) [II-21, 5-[6-Cyclopropylmethoxy-1-(1-pyridin-2-yl-ethyl)-1H-imidazo[4,5-c]pyridin-2-yl]-1,3-dimethyl-1H-pyridin-2-one]  42 nM
7. COc1ccc2nc(-c3cc(C)c(=O)n(C)c3)n(Cc3ccccc3)c2c1 [Example I-22]  44 nM
8. CCn1cc(-c2nc3ccc(N4CCN(C)CC4)cc3n2Cc2ccccc2)cc(C)c1=O [Example I-10]  49 nM
9. Cc1cc(-c2nc3ccc(N)cc3n2Cc2ccccc2)cn(C)c1=O [Example I-9, 5-(6-Amino-1-benzyl-1H-benzoimidazol-2-yl)-1,3-dimethyl-1H-pyridin-2-one]  58 nM
10. Cc1cc(-c2nc3ccc(C4(C(F)(F)F)CC4)cc3n2Cc2ccccn2)cn(C)c1=O [Example I-30]  63 nM
11. Cc1cc(-c2nc3ccccc3n2Cc2ccccc2)cn(C)c1=O [Example I-13]  68 nM
12. Cc1cc(-c2nc3ccc(C4CCOCC4)cc3n2Cc2ccccn2)cn(C)c1=O [Example I-25]  72 nM
13. Cc1cc(-c2nc3ccc(N4CCN(C)CC4)cc3n2Cc2ccccc2)c[nH]c1=O [Example I-7]  95 nM
14. COC[C@H](C)n1c(-c2cc(C)c(=O)n(C)c2)nc2ccc(C3CCOCC3)cc21 [Example I-26]  96 nM
15. Cc1cc(-c2nc3ccc(C4CCOCC4)cc3n2[C@@H](C)c2ccccn2)cn(C)c1=O [Example I-27]  103 nM
16. Cc1cc(-c2nc3ccc(N4CCOCC4)cc3n2Cc2ccccc2)c[nH]c1=O [Example I-3]  109 nM
17. CN1CCN(c2ccc3nc(-c4cn(C)c(=O)cn4)n(Cc4ccccc4)c3c2)CC1 [Example I-20]  121 nM
18. Cc1cc(-c2nc3ccc(C(=O)N(C)C)cc3n2Cc2ccccc2)cn(C)c1=O [Example I-24]  128 nM
19. COC[C@H](C)n1c(-c2cc(C)c(=O)n(C)c2)nc2ccc(C(C)C)cc21 [Example I-28]  174 nM
20. Cc1cc(-c2nc3ccc(C(C)C)cc3n2[C@@H](C)c2ccccn2)cn(C)c1=O [Example I-29]  180 nM
21. Cc1cc(-c2nc3ccc(C#N)cc3n2Cc2ccccc2)cn(C)c1=O [Example I-23]  190 nM
22. CN1CCN(c2ccc3nc(-c4ccc(=O)n(C)n4)n(Cc4ccccc4)c3c2)CC1 [Example I-16]  192 nM
23. Cc1nc(-c2nc3ccccc3n2Cc2ccccc2)cn(C)c1=O [Example I-21]  201 nM
24. Cn1cc(-c2nc3ccc(N4CCOCC4)cc3n2Cc2ccccc2)ncc1=O [Example I-19]  298 nM
25. Cn1cc(-c2nc3ccc(N4CCOCC4)cc3n2Cc2ccccc2)ccc1=O [Example I-4]  515 nM
26. CN1CCN(c2ccc3nc(-c4ccc(=O)n(C)c4)n(Cc4ccccc4)c3c2)CC1 [Example I-5]  547 nM
27. Cc1cc(-c2nc3ccccc3n2Cc2ccccc2)c[nH]c1=O [Example I-8]  609 nM
28. Cn1cc(-c2nc3ccccc3n2Cc2ccccc2)ncc1=O [Example I-18]  1110 nM
29. Cn1nc(-c2nc3ccccc3n2Cc2ccccc2)ccc1=O [Example I-15]  1380 nM
30. Cn1cc(-c2nc3ccccc3n2Cc2ccccc2)ccc1=O [Example I-2]  1540 nM
